The values that follow come from patent US20240156800A1, “EP300 DEGRADER AND USES THEREOF IN NEUROBLASTOMA” (DANA-FARBER CANCER INSTITUTE, INC., priority 2021, published 2024).

The target in experiment [1] is T1, CBP (Homo sapiens, UniProt Q92793).
T1 construct: Cells growing in culture were lysed for whole cell lysates; endogenous in cells; host or cells: Kelly, NGP, SIMA, BE2C neuroblastoma cells; Kelly xenografts in NSG mice
In words: SILAC mass spectrometry of the nuclear proteome of Kelly cells (CBP). In kind it is cell-based. The note with it: 500 nM, 24 h, nuclear extract. On the procedure:
(§1) Because JQAD1 interacted preferentially with both EP300 and CRBN, whether JQAD1 preferentially induces degradation of EP300 compared to CBP in MYCN-amplified neuroblastoma cells was examined. […] To further examine the specificity of JQAD1 for EP300, an analysis of the effects of JQAD1 in stable isotope labeling by amino acids in cell culture (SILAC)-labelled Kelly cells was performed (FIG. 3F). Kelly cells were cultured with SILAC media containing heavy or light-labelled arginine and lysine. Heavy labelled cells were treated with 500 nM JQAD1, and light-labelled cells treated with dimethyl sulfoxide (DMSO) for 24 h, prior to nuclear extraction and protein lysis. […] Protein abundance was then analyzed by mass spectrometry, to determine global changes in the nuclear proteome. […] To expand upon these findings, three NB cell lines, Kelly, NGP and SIMA, which have high levels of CRBN (e.g., protein or mRNA) (FIG. 8C), were treated with JQAD, and the effects on specific proteins were measured by western blotting. […] Peptides were detected, isolated, and fragmented to produce a tandem mass spectrum of specific fragment ions for each peptide. Peptide sequences and protein identity were determined by matching protein databases with the acquired fragmentation pattern by Sequest® (Thermo Fisher Scientific) (Eng et al. J. Am. Soc. Mass Spectrom. 5:976-89 (1994)). […]

Experiment [2] addresses T2, CBP (Mus musculus, UniProt P45481).
T2 construct: from tissue; host or cells: liver of Balb/c Crbn^ILE391VAL knock-in mice
Description: Immunohistochemistry of CBP in liver of Crbn ILE391VAL knockin mice. The class given is in vivo. The note with it: 40 mg/Kg IP daily, 14 days. The procedure: For toxicity studies, four female CD1 mice (Charles River Laboratories) were injected intraperitoneally (IP) with single doses of 10 mg/Kg (R,S)-JQAD1 solubilized in 10% hydroxypropyl β-cyclodextrin (Sigma-Aldrich®) in sterile water. Following injection, blood concentration of (R,S)-JQAD1 was measured by serial measurements of animal serum at time points out to 24 h, by liquid chromatography with tandem mass spectrometry (LC-MS/MS) analysis. Pharmacokinetics were performed at ChemPartner in Shanghai, China, using LC-MS/MS method and pharmacokinetics parameters (Tmax, Cmax, T1/2, AUC, etc.) calculated with WinNonlin® V 6.2 statistics software (Pharsight Corporation) using a noncompartmental model. For maximally tolerated dose (MTD) testing, six female CD1 mice were treated with daily IP doses of (R,S)-JQAD1 at 10, 20, or 40 mg/kg. Animals were monitored for animal weight, grooming and behavior daily without noted effects. […] Animal weights, behavior and grooming were monitored daily, for a total of 21 days. […] Blood samples were obtained by retro-orbital puncture and blood analyzed at the Small Animal Imaging Facility at Beth Israel Deaconess Medical Center (Boston, MA), on a Hemavet® 9500FS (Drew Scientific) for blood counts, creatinine, AST, ALT, ALP, GGTP, and BUN measurements. […]

Experiment [3] deals with T3, EP300 (Homo sapiens, UniProt Q09472).
T3 construct: Cells growing in culture were lysed for whole cell lysates; endogenous in cells; host or cells: Kelly, NGP, SIMA, BE2C neuroblastoma cells; Kelly xenografts in NSG mice
In words: SILAC mass spectrometry of the nuclear proteome of Kelly cells (EP300). The class given is cell-based. The note with it: 500 nM, 24 h, nuclear extract, p=3.3×10^−5. On the procedure:
as §1

T3 sequence (Q09472 whole entry): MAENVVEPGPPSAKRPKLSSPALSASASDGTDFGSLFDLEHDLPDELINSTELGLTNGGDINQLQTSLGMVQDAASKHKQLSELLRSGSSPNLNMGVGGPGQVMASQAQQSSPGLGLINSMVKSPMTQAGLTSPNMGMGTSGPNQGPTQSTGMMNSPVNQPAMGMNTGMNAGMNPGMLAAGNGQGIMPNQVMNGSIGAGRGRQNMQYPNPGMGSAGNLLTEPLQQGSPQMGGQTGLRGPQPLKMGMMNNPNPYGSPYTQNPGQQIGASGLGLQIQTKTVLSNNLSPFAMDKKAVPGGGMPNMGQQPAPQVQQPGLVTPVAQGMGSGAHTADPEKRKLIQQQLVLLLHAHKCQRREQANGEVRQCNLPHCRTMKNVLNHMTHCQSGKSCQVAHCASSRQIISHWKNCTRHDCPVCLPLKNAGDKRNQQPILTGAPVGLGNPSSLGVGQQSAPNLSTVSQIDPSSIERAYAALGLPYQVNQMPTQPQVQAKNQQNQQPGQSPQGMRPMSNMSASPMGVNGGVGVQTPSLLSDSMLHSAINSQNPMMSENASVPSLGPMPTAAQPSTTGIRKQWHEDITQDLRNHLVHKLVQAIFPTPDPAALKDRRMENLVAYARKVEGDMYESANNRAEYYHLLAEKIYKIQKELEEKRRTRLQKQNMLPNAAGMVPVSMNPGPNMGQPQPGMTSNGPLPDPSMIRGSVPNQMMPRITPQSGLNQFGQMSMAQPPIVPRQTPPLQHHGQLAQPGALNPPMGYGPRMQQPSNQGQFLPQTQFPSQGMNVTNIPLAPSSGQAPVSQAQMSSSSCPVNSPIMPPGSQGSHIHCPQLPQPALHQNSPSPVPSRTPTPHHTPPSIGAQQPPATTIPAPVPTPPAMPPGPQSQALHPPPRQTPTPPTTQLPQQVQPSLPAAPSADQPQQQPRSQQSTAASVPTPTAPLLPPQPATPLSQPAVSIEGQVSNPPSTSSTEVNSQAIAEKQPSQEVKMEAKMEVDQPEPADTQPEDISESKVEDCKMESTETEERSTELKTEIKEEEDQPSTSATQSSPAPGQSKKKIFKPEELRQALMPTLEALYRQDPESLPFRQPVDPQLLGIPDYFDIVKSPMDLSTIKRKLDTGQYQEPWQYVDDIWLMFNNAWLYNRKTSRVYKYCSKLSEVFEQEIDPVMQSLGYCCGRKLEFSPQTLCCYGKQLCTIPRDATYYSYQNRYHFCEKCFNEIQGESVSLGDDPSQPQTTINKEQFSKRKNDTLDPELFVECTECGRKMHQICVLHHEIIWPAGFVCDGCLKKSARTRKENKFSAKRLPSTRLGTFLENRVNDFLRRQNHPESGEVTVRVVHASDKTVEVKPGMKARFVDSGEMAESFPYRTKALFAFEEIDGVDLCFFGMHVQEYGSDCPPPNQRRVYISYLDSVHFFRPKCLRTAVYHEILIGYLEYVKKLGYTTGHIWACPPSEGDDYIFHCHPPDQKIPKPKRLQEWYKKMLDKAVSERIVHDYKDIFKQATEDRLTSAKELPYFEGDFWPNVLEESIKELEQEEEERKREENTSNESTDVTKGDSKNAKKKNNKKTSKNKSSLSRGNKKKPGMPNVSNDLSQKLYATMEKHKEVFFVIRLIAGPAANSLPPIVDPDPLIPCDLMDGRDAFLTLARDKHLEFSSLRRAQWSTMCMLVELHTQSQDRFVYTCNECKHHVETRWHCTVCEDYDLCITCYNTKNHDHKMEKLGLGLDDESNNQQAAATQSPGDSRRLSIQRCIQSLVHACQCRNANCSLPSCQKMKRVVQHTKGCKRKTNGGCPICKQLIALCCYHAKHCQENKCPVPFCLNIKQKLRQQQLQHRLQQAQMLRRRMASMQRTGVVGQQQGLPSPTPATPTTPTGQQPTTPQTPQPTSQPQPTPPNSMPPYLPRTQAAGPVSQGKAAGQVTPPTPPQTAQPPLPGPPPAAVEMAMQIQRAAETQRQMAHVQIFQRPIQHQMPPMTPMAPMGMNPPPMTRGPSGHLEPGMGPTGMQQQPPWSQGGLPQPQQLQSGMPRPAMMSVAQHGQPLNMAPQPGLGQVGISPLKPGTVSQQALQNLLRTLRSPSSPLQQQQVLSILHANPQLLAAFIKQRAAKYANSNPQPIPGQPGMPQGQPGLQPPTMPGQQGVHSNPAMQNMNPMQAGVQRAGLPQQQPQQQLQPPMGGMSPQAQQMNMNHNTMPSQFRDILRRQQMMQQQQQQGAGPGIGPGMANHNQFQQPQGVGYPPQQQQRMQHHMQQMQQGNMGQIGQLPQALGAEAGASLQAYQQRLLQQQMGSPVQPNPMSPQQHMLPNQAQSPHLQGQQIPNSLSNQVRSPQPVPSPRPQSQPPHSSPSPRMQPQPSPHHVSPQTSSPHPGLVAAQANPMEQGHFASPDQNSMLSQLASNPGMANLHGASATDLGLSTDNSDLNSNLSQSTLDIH
T1 sequence (Q92793 whole entry): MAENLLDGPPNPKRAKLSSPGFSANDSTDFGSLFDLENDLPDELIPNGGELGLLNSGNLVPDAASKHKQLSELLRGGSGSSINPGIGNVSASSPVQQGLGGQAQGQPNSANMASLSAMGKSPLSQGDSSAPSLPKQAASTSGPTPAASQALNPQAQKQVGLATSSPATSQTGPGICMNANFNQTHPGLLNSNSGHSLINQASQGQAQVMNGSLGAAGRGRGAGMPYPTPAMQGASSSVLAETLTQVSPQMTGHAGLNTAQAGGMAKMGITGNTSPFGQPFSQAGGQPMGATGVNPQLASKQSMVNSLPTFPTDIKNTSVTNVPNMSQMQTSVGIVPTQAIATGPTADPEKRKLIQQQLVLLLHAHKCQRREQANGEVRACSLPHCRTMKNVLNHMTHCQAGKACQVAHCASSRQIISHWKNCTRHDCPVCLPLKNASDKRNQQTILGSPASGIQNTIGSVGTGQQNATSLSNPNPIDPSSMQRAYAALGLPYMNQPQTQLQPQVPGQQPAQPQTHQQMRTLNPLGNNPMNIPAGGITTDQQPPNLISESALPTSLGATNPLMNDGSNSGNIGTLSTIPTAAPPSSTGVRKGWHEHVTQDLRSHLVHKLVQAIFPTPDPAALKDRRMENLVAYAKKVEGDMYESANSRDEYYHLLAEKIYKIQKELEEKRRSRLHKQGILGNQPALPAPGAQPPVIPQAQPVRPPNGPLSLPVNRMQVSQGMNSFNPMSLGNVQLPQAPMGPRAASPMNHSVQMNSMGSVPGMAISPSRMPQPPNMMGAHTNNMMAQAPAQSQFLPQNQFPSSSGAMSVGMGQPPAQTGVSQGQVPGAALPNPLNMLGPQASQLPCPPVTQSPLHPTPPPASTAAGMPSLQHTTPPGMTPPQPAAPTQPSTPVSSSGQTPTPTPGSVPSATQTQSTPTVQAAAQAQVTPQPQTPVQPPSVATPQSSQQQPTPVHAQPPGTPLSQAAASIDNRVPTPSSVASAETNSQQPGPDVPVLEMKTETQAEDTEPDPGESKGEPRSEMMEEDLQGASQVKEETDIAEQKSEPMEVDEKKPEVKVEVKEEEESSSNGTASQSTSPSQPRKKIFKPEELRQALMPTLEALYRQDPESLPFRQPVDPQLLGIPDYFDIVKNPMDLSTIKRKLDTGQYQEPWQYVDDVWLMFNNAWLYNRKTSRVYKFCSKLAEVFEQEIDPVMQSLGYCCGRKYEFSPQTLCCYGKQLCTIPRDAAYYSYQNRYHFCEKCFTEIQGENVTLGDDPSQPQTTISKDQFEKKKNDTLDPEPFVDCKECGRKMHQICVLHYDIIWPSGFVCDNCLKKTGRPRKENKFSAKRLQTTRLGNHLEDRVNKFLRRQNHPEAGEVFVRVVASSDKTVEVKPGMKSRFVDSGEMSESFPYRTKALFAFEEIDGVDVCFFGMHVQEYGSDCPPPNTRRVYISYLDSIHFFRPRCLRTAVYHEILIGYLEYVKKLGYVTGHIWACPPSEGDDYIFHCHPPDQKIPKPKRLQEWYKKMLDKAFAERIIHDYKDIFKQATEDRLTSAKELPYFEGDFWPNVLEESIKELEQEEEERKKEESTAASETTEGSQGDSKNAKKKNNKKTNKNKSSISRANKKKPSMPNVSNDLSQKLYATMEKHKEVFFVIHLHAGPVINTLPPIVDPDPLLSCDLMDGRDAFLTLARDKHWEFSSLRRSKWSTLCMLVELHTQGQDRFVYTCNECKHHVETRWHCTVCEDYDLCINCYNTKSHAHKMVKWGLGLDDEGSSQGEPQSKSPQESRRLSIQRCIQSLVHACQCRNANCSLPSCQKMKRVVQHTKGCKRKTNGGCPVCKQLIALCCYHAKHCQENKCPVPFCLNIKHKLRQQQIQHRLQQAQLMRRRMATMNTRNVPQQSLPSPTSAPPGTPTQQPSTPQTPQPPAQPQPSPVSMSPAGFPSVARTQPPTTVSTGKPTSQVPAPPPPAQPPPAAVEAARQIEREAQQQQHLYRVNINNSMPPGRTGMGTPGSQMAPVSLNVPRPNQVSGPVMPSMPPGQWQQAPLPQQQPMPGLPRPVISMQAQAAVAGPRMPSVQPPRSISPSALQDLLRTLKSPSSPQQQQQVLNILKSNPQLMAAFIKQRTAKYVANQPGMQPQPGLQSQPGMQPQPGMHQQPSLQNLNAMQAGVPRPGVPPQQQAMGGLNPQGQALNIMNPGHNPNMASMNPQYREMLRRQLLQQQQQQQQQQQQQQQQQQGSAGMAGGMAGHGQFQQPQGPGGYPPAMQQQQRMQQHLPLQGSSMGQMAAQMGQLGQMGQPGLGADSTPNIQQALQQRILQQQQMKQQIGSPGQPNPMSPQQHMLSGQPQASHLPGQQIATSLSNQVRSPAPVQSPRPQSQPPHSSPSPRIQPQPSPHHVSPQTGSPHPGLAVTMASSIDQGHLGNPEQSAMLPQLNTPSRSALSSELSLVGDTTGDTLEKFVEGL

Regarding `C[C@H](N(Cc1ccc(F)cc1)C(=O)CN1C(=O)O[C@@]2(CCc3cc(NC(=O)CCCCCCCCCCCNc4ccc5c(c4)C(=O)N(C4CCC(=O)NC4=O)C5=O)ccc32)C1=O)C(F)(F)F` (stereo partly drawn) [JQAD1, 12-((2-(2,6-dioxopiperidin-3-yl)-1,3-dioxoisoindolin-5-yl)amino)-N-((R)-3′-(2-((4-fluorobenzyl)((S)-1,1,1-trifluoropropan-2-yl)amino)-2-oxoethyl)-2′,4′-dioxo-2,3-dihydrospiro[indene-1,5′-oxazolidin]-5-yl)dodecanamide], the CBP protein abundance entry in experiment [1] is on record as “remained detectable at similar levels as controls”. In experiment [2], the CBP in liver result is listed as “CBP remained detectable by immunohistochemistry”. For the same molecule, the EP300 protein abundance entry in experiment [3] is given as “significantly decreased”.
